Laboratory results published in article PMC4862670, “Biochemical Effect of Resistance Mutations against Synergistic Inhibitors of RSV RNA Polymerase” (PLoS ONE, 2016).
Several values for one entry are separate records, joined by “and”; a condition that tells them apart may be missing. Equal entries are not always repeated. Where two headings read alike, the source gives them in different places.

How the values were obtained:
[1] = target: T1, WT RSV L-P (Human respiratory syncytial virus A, UniProt P28887); format: biochemical
T1 construct: made in house; host or cells: insect cells
Experimental: The recombinant RSV polymerase complex was produced by co-expressing the L and P proteins of RSV in insect cells as previously described. Unless otherwise specified, RNA polymerase reaction samples consisted of 0.2 μM of an oligonucleotide template sequence derived from the RSV leader promoter (5'-[…]-3') and 0.2 μM recombinant RSVL-P polymerase together with 200 μM 5'-pACGC primer, mixed in a buffer containing 20 mM Tris pH 7.5, 10 mM KCl, 2 mM dithiothreitol, 0.5% triton X-100, 10% DMSO, 0.2 U/μL RNasin (Ambion), and 6 mM MgCl2. Reactions were started by adding specific NTPs to a final volume of 10 μL and incubated at 30°C. The radioisotope tracer used for this assay was α^33P-GTP. To measure the incorporation of GTP analogs, the oligonucleotide template sequence was modified to 5'-[…]-3'. Reactions were stopped after 30 minutes by adding an equal volume of gel loading buffer (Ambion). Samples were denatured at 95°C for 5 minutes, and run for 1.5 hours at 80 W in a 22.5% polyacrylamide urea sequencing gel. After the gel was dried, the product of migration was exposed to a phosphor-screen and scanned on a Typhoon phosphorimager (GE Healthcare) and quantified using ImageQuant (GE Healthcare). For each enzyme, the level of NTP analog discrimination was calculated as Km NTP analog / Km NTP, and the corresponding resistance as Mutantdiscrimination / WTdiscrimination.

[2] = target: T2, QUAD RSV L-P (M628L, A789V, L795I, I796V) (Human respiratory syncytial virus A, UniProt P28887, A789V/I796V/L795I/M628L); assay: Single nucleotide incorporation (primer extension) by recombinant RSV L-P, QUAD mutant; format: biochemical; details: for Km / Discrimination (Km NTP analog / Km NTP): QUAD RSV L-P; for Km: single nucleotide incorporation; for Resistance (QUADdiscrimination / WTdiscrimination): QUAD vs WT RSV L-P
[3] = tested on: [N-]=[N+]=N[C@]1(COP(=O)(O)OP(=O)(O)OP(=O)(O)O)O[C@@H](n2ccc(N)nc2=O)[C@H](F)[C@@H]1O; assay: purified protein, by the assay type; details: pH 7.5
[4] = tested on: Nc1ccn([C@@H]2O[C@](CCl)(COP(=O)(O)OP(=O)(O)OP(=O)(O)O)[C@@H](O)[C@H]2O)c(=O)n1; assay: purified protein, by the assay type; details: pH 7.5
[5] = target: T2, QUAD RSV L-P (M628L, A789V, L795I, I796V); details: cited from earlier work
[6] = target: Y1631H RSV polymerase (Human respiratory syncytial virus A, UniProt P28887, Y1631H); assay: Single nucleotide incorporation, Y1631H mutant; format: biochemical
[7] = target: T1, WT RSV L-P; details: cited from earlier work
[8] = tested on: QUAD RSV L polymerase-dependent luciferase activity; assay: cells; format: cell-based, Respiratory syncytial virus (RSV), HEp-2 cells
[9] = tested on: WT RSV L polymerase-dependent luciferase activity; assay: cells; format: cell-based, Respiratory syncytial virus (RSV); details: human respiratory syncytial virus, HEp-2 cells, minigenome luciferase
[10] = target: RSV polymerase containing the Y1631H mutation in the L subunit (Human respiratory syncytial virus A, UniProt P28887, Y1631H); assay: Biotin-primer extension RdRp assay, Y1631H; format: biochemical; details: Y1631H IC50 vs WT IC50
[11] = target: T3, RSV L-P dimer (Human respiratory syncytial virus A, UniProt P28887); assay: Ni-NTA pull-down assay of RSV L-P; format: binding; details: 10 μM, 30 minutes pre-incubation
T3 construct: made in house; host or cells: insect cells
Experimental: The enzyme-inhibitor complex was pre-incubated for 30 minutes, after which nickel beads were used to pull down the histidine-tagged P subunit. The bound protein was washed on the beads and visualized by SDS PAGE. When the experiment was performed in the presence of DMSO, the untagged L subunit remained noncovalently bound to P (Fig 6A, lane 1).
Beads were collected by centrifugation, and washed in 500 μL buffer containing 20mM Tris pH 7.5, 10 mM KCl, 6 mM MgCl2, 0.01% Triton X-100, and 2 mM DTT. Beads were resuspended in 20 μL loading buffer (4% SDS, 20% glycerol, 0.12M Tris pH 7, and 10% BME) and heated for 5 minutes at 95°C. Samples were run on a 4% to 12% SDS PAGE gel alongside PageRuler prestained marker (Invitrogen) and stained using SimplyBlue SafeStain (Thermo Fisher Scientific).

[12] = target: T1, WT RSV L-P; format: biochemical; details: 10 μM
[13] = WT RSV L-P, single nucleotide incorporation

In the case of GTP [reference compound], the Km [1, 13] is reported as 1.1 ± 0.4 µM and the Km [2] is reported as 0.3 ± 0.1 µM.

With `[N-]=[N+]=N[C@]1(COP(=O)(O)OP(=O)(O)OP(=O)(O)O)O[C@@H](n2ccc(N)nc2=O)[C@H](F)[C@@H]1O` [2'F-4'N3-CTP] the “Resistance (QUADdiscrimination / WTdiscrimination)” value ([2]; listed as azido (N3-)) was “no resistance”.

For (Human respiratory syncytial virus A2), the Km [3] was 0.62 ± 0.042 µM and the Km [4] was 19.7 ± 6.7 µM.

In the case of `Nc1ccn([C@@H]2O[C@](CBr)(COP(=O)(O)OP(=O)(O)OP(=O)(O)O)[C@@H](O)[C@H]2F)c(=O)n1` [bromomethyl (BrCH2)], the “Resistance (QUADdiscrimination / WTdiscrimination)” value [2] is reported as greater than 3 fold.

In the case of `C[C@@H](F)[C@]1(COP(=O)(O)OP(=O)(O)OP(=O)(O)O)O[C@@H](n2ccc(N)nc2=O)[C@H](F)[C@@H]1O` [1-fluoroethyl (FCH3CH2)], the “Resistance (QUADdiscrimination / WTdiscrimination)” value [2] is reported as greater than 3 fold.

For `Nc1ccn([C@@H]2O[C@](CF)(COP(=O)(O)OP(=O)(O)OP(=O)(O)O)[C@@H](O)[C@H]2F)c(=O)n1` [fluoromethyl (FCH2)], the “Resistance (QUADdiscrimination / WTdiscrimination)” value [2] was greater than 3 fold.

For `Nc1ccn([C@@H]2O[C@](CCl)(COP(=O)(O)OP(=O)(O)OP(=O)(O)O)[C@@H](O)[C@H]2F)c(=O)n1` [ALS-8112-TP, 2'F-4'ClCH2-cytidine triphosphate], the “Resistance (increase in discrimination by QUAD)” value ([5]; QUAD vs WT RSV L-P) is given as 4.6 fold, the “Discrimination of the CTP analog” value [6] is given as 18 fold and the “Resistance (QUADdiscrimination / WTdiscrimination)” value ([2]; listed as chloromethyl (ClCH2)) is given as greater than 3 fold. The Discrimination ([7]; WT RSV polymerase) was 13 fold.

In the case of ATP [reference compound], the Km [1, 13] is reported as 2.2 ± 0.2 µM and the Km [2] is reported as 1.8 ± 0.3 µM.

With `CSC[C@]1(COP(=O)(O)OP(=O)(O)OP(=O)(O)O)O[C@@H](n2ccc(N)nc2=O)[C@H](F)[C@@H]1O` [methyl-thio-methyl (CH3SCH2)] the “Resistance (QUADdiscrimination / WTdiscrimination)” value [2] was “no resistance”.

In the case of 2'F-4'ClCH2-GTP, the Chain termination effect [1] is reported as “did not completely block RNA synthesis”, the “Discrimination (Km NTP analog / Km NTP)” value [1] is reported as 5.6±0.6 fold and the Km [1] is reported as 5.8 ± 1.4 µM. For the same molecule, the “Discrimination (Km NTP analog / Km NTP)” value [2] was 94.4 fold and 94.4±17.7 fold, the Km [2] was 31.1 ± 15 µM and the “Resistance (QUADdiscrimination / WTdiscrimination)” value [2] was 17 fold.

With `Nc1ccn([C@@H]2O[C@@](CO)(CBr)[C@@H](O)[C@H]2F)c(=O)n1` [2'F-4'BrCH2-cytidine] the “Loss in inhibition potency in the presence of the QUAD mutations” value ([8]; QUAD vs WT minigenome) was 47 fold and the EC50 [9] was 1600 ± 600 nM.

With `[N-]=[N+]=N[C@]1(CO)O[C@@H](n2ccc(N)nc2=O)[C@H](F)[C@@H]1O` [2'F-4'N3-cytidine] the EC50 ([8]; human respiratory syncytial virus, QUAD L, HEp-2 cells, minigenome luciferase) was 2200 ± 500 nM and the EC50 [9] was 1300 ± 300 nM.

For CTP [reference compound], the Km ([5]; QUAD RSV L-P, n = 2, read-out: Km CTP) is given as 0.028 ± 0.005 µM, the Km [6] is given as 0.042 ± 0.009 µM and the Km ([7]; WT RSV L-P, n = 4, read-out: Km CTP) is given as 0.056 ± 0.01 µM.

In the case of `O=C(NC1CC1)c1cc2c(s1)-c1ccccc1N(C(=O)c1ccc(NC(=O)c3cccnc3N3CCC4(CC3)COC4)cc1)CC2` [AZ-27], the “Resistance compared to the WT enzyme” value [10] is reported as 940 fold, the “Effect on L binding to P (L-P complex stability)” value [11] is reported as “did not inhibit the ability of L to bind to P” and the “Inhibition of +1 and +2 RNA products” value ([12]; 30-minute reaction) is reported as “no inhibition”. The “Inhibition of +4–7 RNA products” value ([12]; 30-minute reaction, position +4 and beyond) was 75–85% and the “Inhibition behavior with respect to NTPs” value ([12]; ATP+CTP from 1 to 100 μM) was “non-competitive inhibition behavior”.

In the case of `Nc1ccn([C@@H]2O[C@@](COP(=O)(O)OP(=O)(O)OP(=O)(O)O)(C3CC3)[C@@H](O)[C@H]2F)c(=O)n1` [cyclopropyl (CH2CH2CH2)], the “Resistance (QUADdiscrimination / WTdiscrimination)” value [2] is reported as “no resistance”.

In the case of 2'F-4'ClCH2-ATP, the Chain termination effect [1] is reported as “immediate chain terminator”, the “Discrimination (Km NTP analog / Km NTP)” value [1] is reported as 12 fold and 12±2.5 fold and the Km [1] is reported as 27 ± 7.8 µM. For the same molecule, the “Discrimination (Km NTP analog / Km NTP)” value [2] was 12.9±1.1 fold, the Km [2] was 23.6 ± 5.8 µM and the “Resistance (QUADdiscrimination / WTdiscrimination)” value [2] was 1.1 fold.
